From article PMC3995007, “GTP binding controls complex formation by the human ROCO protein MASL1” (The Febs Journal, 2013)

Key:
MASL1 [1] = target: T1, MASL1 (Homo sapiens, UniProt Q9Y4C4); assay: pulldown on GTP-sepharose beads, competition with free GTP, immunoblot; format: binding; conditions: clarified HEK293T lysate, 4 °C, 2 h; free GTP 10 mM; immobilised GTP; ROC domain site
T1 construct: gene MFHAS1; overexpressed in HEK293T, clarified lysate; plasmid from Genecopoeia
T1 sequence (Q9Y4C4 2-1052): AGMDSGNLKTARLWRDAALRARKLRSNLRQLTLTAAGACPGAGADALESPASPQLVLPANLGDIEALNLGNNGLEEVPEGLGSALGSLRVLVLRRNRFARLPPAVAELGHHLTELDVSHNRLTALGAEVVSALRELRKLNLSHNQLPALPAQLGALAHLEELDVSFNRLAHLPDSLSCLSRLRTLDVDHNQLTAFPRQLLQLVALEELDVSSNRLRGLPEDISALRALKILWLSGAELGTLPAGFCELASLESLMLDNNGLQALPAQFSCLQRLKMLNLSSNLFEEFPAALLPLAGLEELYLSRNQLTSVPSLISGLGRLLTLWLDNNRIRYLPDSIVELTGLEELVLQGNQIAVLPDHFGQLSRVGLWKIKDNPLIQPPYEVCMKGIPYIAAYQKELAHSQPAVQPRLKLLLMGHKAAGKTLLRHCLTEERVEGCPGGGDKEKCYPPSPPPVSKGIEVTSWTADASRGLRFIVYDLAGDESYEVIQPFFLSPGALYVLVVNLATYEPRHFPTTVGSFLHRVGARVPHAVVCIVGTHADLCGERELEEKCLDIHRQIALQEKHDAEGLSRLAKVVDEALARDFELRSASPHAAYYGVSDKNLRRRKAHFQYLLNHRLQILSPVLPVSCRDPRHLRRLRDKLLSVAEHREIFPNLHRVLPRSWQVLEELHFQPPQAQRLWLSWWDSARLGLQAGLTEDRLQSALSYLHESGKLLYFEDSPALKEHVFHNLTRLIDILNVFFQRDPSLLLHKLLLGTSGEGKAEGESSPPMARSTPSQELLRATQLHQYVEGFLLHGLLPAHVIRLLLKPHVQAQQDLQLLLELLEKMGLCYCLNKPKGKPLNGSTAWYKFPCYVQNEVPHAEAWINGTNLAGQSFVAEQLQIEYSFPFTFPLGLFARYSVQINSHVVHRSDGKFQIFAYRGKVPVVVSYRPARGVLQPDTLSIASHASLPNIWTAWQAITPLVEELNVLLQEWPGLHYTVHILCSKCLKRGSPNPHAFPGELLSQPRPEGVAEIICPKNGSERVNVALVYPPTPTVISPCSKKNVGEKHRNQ

MASL1 [2] = target: T1, MASL1; assay: size exclusion chromatography of lysate, shift between HMW and LMW complex, dot blot; format: biochemical; conditions: 200 µM GDP in HEK293T lysate and mobile phase, pH 7.5; indirect read-out of binding, K422A used as control

| Compound | pulldown on GTP-sepharose beads, competition with free GTP, immunoblot (MASL1 [1]) | size exclusion chromatography of lysate, shift between HMW and LMW complex, dot (MASL1 [2]) |
| --- | --- | --- |
| Nc1nc2c(ncn2[C@@H]2O[C@H](COP(=O)(O)OP(=O)(O)OP(=O)(O)O)[C@@H](O)[C@H]2O)c(=O)[nH]1 [GTP] | Wild type HA-tagged MASL1 was able to bind GTP immobilized on sepharose beads | – |
| Nc1nc2c(ncn2[C@@H]2O[C@H](COP(=O)(O)OP(=O)(O)O)[C@@H](O)[C@H]2O)c(=O)[nH]1 [GDP] | – | GDP shifted the equilibrium between LMW and HMW complex towards the latter |
